Source: paper PMC7686313, “Phase 1 study of mTORC1/2 inhibitor sapanisertib (TAK-228) in advanced solid tumours, with an expansion phase in renal, endometrial or bladder cancer” (British Journal of Cancer, 2020)

Tested on: advanced solid tumours
Test: Tumour response according to RECIST v1.1, advanced solid tumours
Type: in vivo, human
Settings: for Duration of partial response (PR): dose-escalation
[1] = dose-escalation QD 2–7 mg (n = 21)
[2] = dose-escalation QD × 3d 6–20 mg (n = 27)
[3] = dose-escalation QD × 5d 7–13 mg (n = 18)
[4] = dose-escalation QW 7–40 mg (n = 25)

Protocol: Patients who received ≥1 dose of sapanisertib were included in the safety population. The response-evaluable population included patients who received ≥1 dose of sapanisertib, had measurable disease at baseline, and had ≥1 postbaseline assessment. In the dose-escalation phase, the evaluable population included patients who received ≥75% of the planned sapanisertib doses in cycle 1 or experienced a DLT. Response was assessed according to the RECIST v1.1[24] after every two treatment cycles. Adverse events (AEs) were assessed using the National Cancer Institute Common Terminology Criteria for Adverse Events, v4.0. Patients were provided with a home blood-glucose meter to monitor their fasting predose blood-glucose measurements to assess hyperglycaemia as an on-target AE and PD marker.

## CC(C)n1nc(-c2ccc3oc(N)nc3c2)c2c(N)ncnc21 [Sapanisertib]
Both phases
  Patients achieving PR: nine
Both phases, 40 mg QW
  Patients with CR: One
[1]
  Best overall response CR: 0 n (%)
  Best overall response PD: 10 (48) n (%)
  Best overall response PR: 0 n (%)
  Best overall response SD < 6 months: 9 (43) n (%)
  Best overall response SD ≥ 6 months: 2 (10) n (%)
  CBR (CR + PR + SD ≥ 6 months): 2 (10) n (%)
  ORR (CR + PR): 0 n (%)
[2]
  Best overall response CR: 0 n (%)
  Best overall response PD: 14 (52) n (%)
  Best overall response PR: 0 n (%)
  Best overall response SD < 6 months: 12 (44) n (%)
  Best overall response SD ≥ 6 months: 1 (4) n (%)
  CBR (CR + PR + SD ≥ 6 months): 1 (4) n (%)
  ORR (CR + PR): 0 n (%)
[3]
  Best overall response CR: 0 n (%)
  Best overall response PD: 12 (67) n (%)
  Best overall response PR: 1 (6) n (%)
  Best overall response SD < 6 months: 4 (22) n (%)
  Best overall response SD ≥ 6 months: 1 (6) n (%)
  CBR (CR + PR + SD ≥ 6 months): 2 (11) n (%)
  ORR (CR + PR): 1 (6) n (%)
[4]
  Best overall response CR: 0 n (%)
  Best overall response PD: 13 (52) n (%)
  Best overall response PR: 2 (8) n (%)
  Best overall response SD < 6 months: 9 (36) n (%)
  Best overall response SD ≥ 6 months: 1 (4) n (%)
  CBR (CR + PR + SD ≥ 6 months): 3 (12) n (%)
  ORR (CR + PR): 2 (8) n (%)
One patient with carcinoid tumour receiving 10 mg QD × 5dQW
  Duration of partial response (PR): > 32 months
Two patients with RCC receiving 15 mg QW and 40 mg QW
  Duration of partial response (PR): > 32 months
